Assay results from patent US20100292183A1, “TETRACYCLINE AND USES THEREOF” (priority 2009, published 2010).

What was measured:
[1] = doses between 12.5 and 300 mg twice daily; cited from earlier work
[2] = test system: induced mouse models of atherosclerosis; test: induced mouse models of atherosclerosis; type: in vivo, mice
Source text: Inducing atherosclerotic plaque development in mice is disclosed in details in U.S. patent application Ser. No. 12/286,368, which is herein incorporated by reference in its entirety. These mouse models are used for testing tetracycline-acenocoumorol conjugate to determine their efficacy both on reducing progression of plaque development and symptoms of chronic inflammation. Mice purchased from vendors are used for in vivo atherosclerotic plaque development by multiple doses of plaque complexes by intra-peritoneal and intravenous routes as described U.S. patent application Ser. No. 12/286,368. […] Ovastatin, an established anti-atherosclerotic drug (Schwartz et al, 2001) is used for control purposes in these studies and administered by oral route.
Ovastatin, tetracycline, clopidogrel or any anti-coagulant individually and tetracycline-clopidogrel (0.1-5 mg/kg per day) are orally administrated to the symptomatic and asymptomatic atherosclerotic mice models for 8 to 12 weeks. Following administration of the drugs, mice with asymptomatic plaque development are euthanized and blood collected via cardiac puncture. The blood samples will be used test clotting or blood coagulation test to analyse anti-coagulation efficacy of drugs used.

SMILES	safety profile [1]	plaque accumulation, histochemical analysis of heart tissues ([2]; asymptomatic mice model, after treatment)	symptoms of plaque inflammation ([2]; mice with plaque induced chronic inflammation, compared to control animal without treatment)
[H]/N=C(/N)c1ccc(NCc2nc3cc(C(=O)N(CCC(=O)O)c4ccccn4)ccc3n2C)cc1 [dabigatran]	good safety profile		
CC[C@H](C)C(=O)O[C@H]1C[C@@H](C)C=C2C=C[C@H](C)[C@H](CC[C@@H]3C[C@@H](O)CC(=O)O3)[C@H]21 [ovastatin]		reduced plaque accumulation	reduced symptoms of plaque inflammation
